Reference: publication PMC6542793, “The identification of small molecule inhibitors of the plant inositol phosphorylceramide synthase which demonstrate herbicidal activity” (Scientific Reports, 2019)
“And” between values parts separate entries of the source, which are not always exact repeats. Equal values may be shown once. “Also recorded” adds a separate entry of the source. Starred links: 1 amine or outer side, 2 acyl side, 3 side chain; linkers in the order of their positions; H or OH if unused. Non-standard residues stand in square brackets, D forms with d. Residues, ends and D or L forms follow the SMILES beside them. X1 = CC[C@@H](C)[C@@H](O[*:1])C(=O)[*:2]; NMeVal(β-OH) = CN[C@H](C(=O)O)C(C)(C)O; NMeF = CN[C@@H](Cc1ccccc1)C(=O)O; aIle = CC[C@@H](C)[C@H](N)C(=O)O; NMeV = CN[C@H](C(=O)O)C(C)C

Experiments:
Aur1p [1] = biological target: T1, Aur1p (Saccharomyces cerevisiae, UniProt P36107); test: Secondary screening, 96-well plate microsomal in vitro IPCS enzyme assay (Aur1p control); assay type: biochemical
T1 construct: The complete open reading frames of AtIPCS2 and AUR1p were amplified from cDNA or GenEZ ORF Clones; made in house; microsomal membranes
T1 sequence (P36107 1-401): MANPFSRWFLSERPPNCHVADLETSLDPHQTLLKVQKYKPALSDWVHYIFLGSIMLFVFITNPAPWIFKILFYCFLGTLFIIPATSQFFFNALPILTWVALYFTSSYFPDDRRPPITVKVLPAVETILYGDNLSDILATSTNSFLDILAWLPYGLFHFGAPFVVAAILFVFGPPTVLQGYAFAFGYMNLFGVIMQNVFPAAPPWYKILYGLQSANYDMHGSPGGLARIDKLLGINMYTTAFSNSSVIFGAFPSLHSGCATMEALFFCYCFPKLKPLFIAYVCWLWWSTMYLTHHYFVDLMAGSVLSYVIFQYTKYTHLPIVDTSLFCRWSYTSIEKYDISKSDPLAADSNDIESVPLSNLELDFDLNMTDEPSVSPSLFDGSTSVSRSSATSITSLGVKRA
T1 sequence (Q06346 1-221 partner): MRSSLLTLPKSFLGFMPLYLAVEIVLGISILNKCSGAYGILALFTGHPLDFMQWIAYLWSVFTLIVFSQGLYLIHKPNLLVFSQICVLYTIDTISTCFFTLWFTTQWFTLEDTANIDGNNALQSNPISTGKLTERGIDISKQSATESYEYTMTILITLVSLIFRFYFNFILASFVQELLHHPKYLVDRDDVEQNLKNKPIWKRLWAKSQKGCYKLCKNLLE
Description: (§1) In the secondary screening stage the previously described microsomal-based in vitro IPCS assay was adapted and utilised. Initially, all 106 selective hits from the primary screen were tested, in duplicate, at 10 µM.
(§2) Microsomal material was prepared from MSY23-3C pESC-LEU_AtIPCS2 and MSY23-3C pESC-LEU_AUR1 as previously described. IPCS turnover was assayed using HPTLC (Merck) and imaged using a Fuji FLA−3000 reader and AIDA Image Analyser® software (version 3.52) as previously described. Subsequently, a 96-well plate assay was formatted based on the protocol described by Mina et al.[17]. Following optimisation of substrate concentration and incubation time, each compound at the desired concentration (100 µM to 46 nM; in triplicate), was incubated in 96-well plates (Corning® Costar®) in phosphate buffer (71.4 mM, pH 7.0) with soybean PI (100 µM, final concentration, Avanti), NBD-C6-phytoceramide (15 µM; ThermoFisher) and microsomal membranes (0.3–0.4 Units[17]). Following incubation for 60 minutes (or 40 minutes for MSY23-3C pESC-LEU_AUR1 membranes) at 30 °C the reaction was quenched by the addition of 200 µl methanol per well, the reaction product separated using exchange chromatography in 96-well filter plates (Millipore)[17] and the fluorescence measured at Ex460/Em540 using a fluorescence Microplate Reader (Biotek Synergy H4 with Gen5™). […]

Arabidopsis seedlings = test: In vivo screening, Arabidopsis seedlings grown on agar; set-up: species or system A. thaliana (Col0)
Description: In vivo testing of the phenylamidine Compound 1 was undertaken against Arabidopsis seedlings grown on agar.
A. thaliana (Col0) seedlings were grown for 10 days on 0.8% Murashige and Skoog (MS) agar and then transferred to 1.2% MS agar containing compounds at the desired concentrations or DMSO as a control. Plants were grown at 20 °C under 16 hour day/8 hour night photoperiod.

AtIPCS2 [2] = biological target: T2, AtIPCS2 (Arabidopsis thaliana, UniProt Q9SH93); test: Secondary screening, 96-well plate microsomal in vitro IPCS enzyme assay (AtIPCS2); assay type: biochemical; settings: AtIPCS2 IC50 (95% CI), microsomal membranes, dose response 100 µM to 46 nM, triplicate
T2 construct: The complete open reading frames of AtIPCS2 and AUR1p were amplified from cDNA or GenEZ ORF Clones; made in house; microsomal membranes
T2 sequence (Q9SH93 1-305): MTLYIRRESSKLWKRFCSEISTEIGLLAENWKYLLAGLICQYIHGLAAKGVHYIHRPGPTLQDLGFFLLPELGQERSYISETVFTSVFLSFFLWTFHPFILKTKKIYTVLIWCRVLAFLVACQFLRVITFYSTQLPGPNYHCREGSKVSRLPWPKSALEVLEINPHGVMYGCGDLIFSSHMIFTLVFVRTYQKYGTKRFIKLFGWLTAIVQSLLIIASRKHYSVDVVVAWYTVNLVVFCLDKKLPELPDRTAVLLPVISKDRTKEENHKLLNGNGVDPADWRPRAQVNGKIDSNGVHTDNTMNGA
Description: as §1, §2

Aur1p [3] = biological target: T1, Aur1p; test: HPTLC in vitro IPCS assay of microsomal extracts, NBD-IPC production (Aur1p); assay type: biochemical; settings: presence vs absence of AbA
Description: Microsomal material was prepared from MSY23-3C pESC-LEU_AtIPCS2 and MSY23-3C pESC-LEU_AUR1 as previously described[33]. IPCS turnover was assayed using HPTLC (Merck) and imaged using a Fuji FLA−3000 reader and AIDA Image Analyser® software (version 3.52) as previously described[17].

fungal IPCS = system: fungal IPCS; set-up: method as in PMID 8593016, PMID 9405490, PMID 9614099, PMID 17420565, PMID 19644519; settings: inhibitors of the fungal IPCS; cited from earlier work
AtIPCS2 [4] = biological target: T2, AtIPCS2; test: HPTLC in vitro IPCS assay of microsomal extracts, NBD-IPC production (AtIPCS2); assay type: biochemical; settings: presence vs absence of AbA
Description: In the quadruple pdr1∆ pdr3∆ pdr16∆ pdr17∆ strain, AUR1 was deleted and replaced by a HIS3 selectable marker, with growth supported by expression of the essential AUR1 gene from the plasmid pRS316-AUR1 under uracil selection. […] (Fig. 2).
Figure 2 HPTLC separation of in vitro assayed Aur1p and AtIPCS2 showing the production of NBD-IPC in the presence (+) and absence (−) of AbA. […] NBD-Cer is the substrate, NBD-C6-phytoceramide.
as §2, with “Following optimisation of substrate concentration and incubation time, each compound at the desired concentration (100 µM to 46 nM; in triplicate), was incubated in 96-well plates (Corning® Costar®) in phosphate buffer (71.4 mM, pH 7.0) with soybean PI (100 µM, final concentration, Avanti), NBD-C6-phytoceramide (15 µM; ThermoFisher) and microsomal membranes (0.3–0.4 Units[17]).” left out

Molecule: Cc1cc(Oc2ccc(C#N)c(CC(C)(C)C)c2)c(C)cc1N=CN1CCCCC1 [Compound 1]
- IC50 (Aur1p [1]): > 50 µM
- phenotype of treated seedlings (Arabidopsis seedlings; 7 day old seedlings on agar containing 10 and 40 µM, compared to DMSO control): clear purple patches associated with anthocyanin biosynthesis in response to stress[47], and an absence of lateral root development
- effects on wild type Col-0 Arabidopsis seedlings, in words (Arabidopsis seedlings; in vivo screening, dose response): dose dependent effects with decreased lateral root development, and distinctive purple leaf patches; also recorded: induce the plant stress response
- concentration at which treatment restricted growth and led to purple leaf patches (Arabidopsis seedlings; tested at 3.7, 11, 33 and 100 µM, compared to DMSO control): ≥ 11 µM
- IC50 (AtIPCS2 [2]): 4.02 µM and < 5 µM

Molecule: CC[C@@H](C)[C@@H]1NC(=O)[C@@H]2CCCN2C(=O)[C@H](Cc2ccccc2)N(C)C(=O)[C@H](Cc2ccccc2)NC(=O)[C@H](C(C)C)N(C)C(=O)[C@@H]([C@H](C)CC)OC(=O)[C@H](C(C)(C)O)N(C)C(=O)[C@H](CC(C)C)NC(=O)[C@H](C(C)C)N(C)C1=O [aureobasidin A] (cyclo(F[NMeF]P[aIle][NMeV]L[NMeVal(β-OH)][X1][NMeV]))
- sensitivity of Aur1p activity (NBD-IPC production) to the compound (Aur1p [3]): Only the fungal enzyme Aur1p is sensitive
- IC50 against Saccharomyces cerevisiae (fungal IPCS): low nano-molar
- sensitivity of AtIPCS2 activity (NBD-IPC production) to the compound (AtIPCS2 [4]): insensitive

Molecule: CCCCCCCCCC[C@H](C)[C@@H](O)[C@@H](C)/C=C(C)/C=C(\C)C(=O)[C@H](C)/C=C(\C)C(=O)O[C@H](CO)[C@@H](O)[C@H](O)C(=O)O [khafrefungin]
- IC50 against Saccharomyces cerevisiae (fungal IPCS): low nano-molar

Molecule: haplofungin
- IC50 against Saccharomyces cerevisiae (fungal IPCS): low nano-molar

Molecule: pleofungin
- IC50 against Saccharomyces cerevisiae (fungal IPCS): low nano-molar

Molecule: rustimicin
- IC50 against Saccharomyces cerevisiae (fungal IPCS): low nano-molar
